The values below come from patent US20240109865A1, “INDAZOLE COMPOUNDS AS KINASE INHIBITORS” (TYRA BIOSCIENCES, INC., priority 2020, published 2024).

The target in assay [1] is FGFR3 (Homo sapiens (Human), UniProt P22607). Kind of assay: Kinase assay, binding constants (Kd), kinase-tagged T7 phage, qPCR. A digest of the protocol: (§1)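 Competition binding: T7 phage-tagged kinase + biotin-ligand beads + compound (11 pts, 3-fold, 0.9% DMSO). Elution 30 min RT with free ligand; qPCR quantitation. Kd via Hill fit, slope −1.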
Background: Real-time PCR tracks product formation cycle by cycle.

Assay [2] addresses FGFR1 (Homo sapiens (Human), UniProt P11362). Described as above. In short, it runs like this: as §1
Assay [3] has as its target FGFR2 (Homo sapiens (Human), UniProt P21802). The assay is described as above. A digest of the protocol:
as §1

For assay [4], the target named is FGFR4 (Homo sapiens (Human), UniProt P22455). Described as above. In short, it runs like this:
as §1

The target of assay [5] is FGFR3 (V555M) (Homo sapiens (Human), UniProt P22607, V555M). Described as above. To be noted: V555M mutant. A digest of the protocol:
as §1

The test system of assay [6] is RT112/84 cells (FGFR3-fusion). Kind of assay: RT112/84 cancer cell line cell viability assay (CellTiter-Glo 2.0). The class given is cell-based. To be noted: Homo sapiens, 72 hours, Cell Titer Glo 2.0. The source says: (§2) Experimental Purpose: To detect the change of intracellular ATP by Cell Titer-Glo® and to evaluate the inhibitory effect of the compounds on cancer cell lines by determining the in vitro IC50 value of the compounds.
(§3) Cell Titer-Glo® 2.0 Luminescent cell viability assay reagent was purchased from Promega (Madison, WI). RT112/84 and KG-1 cell lines were purchased from American Type Culture Collection (Manassas, VA). UM-UC-14 cell line was purchased from Sigma (St. Louis, MO). RT112/84, UM-UC-14, and KG-1 cells were cultured in RPMI1640 media supplemented with 10% fetal bovine serum. Cultures were maintained at 37° C. in a humidified atmosphere of 5% C02 and 95% air.
(§4) Cell Viability Assay Procedure: Cells were plated in 96-well clear bottom/white plates (Corning #3903) at 10,000 cells/well in 100 μl of media, incubated overnight. The next day, test compound DMSO stock solutions were made at 10 mM and 2 μM final concentration. Compounds were then added to cells in a 9-dose, 10-fold dilution series starting at 30 μM with an HP 300e Digital Dispenser (each dose was applied in triplicate). DMSO was backfilled to each well up to 301 nL total volume of test compound+DMSO, and a total of 301 nL DMSO was added to a control/no test compound well in triplicate. The cells in cell culture plates were incubated with the compounds at 37° C. and 5% C02 for 72 hours. Then 50 μl of Cell Titer Glo 2.0 reagent was added to each well of the cell culture plates. The contents were covered from light and mixed on an orbital shaker at room temperature for 10 min. Luminescence was recorded by a Synergy H1 Microplate Reader (Biotek, Winooski, VT). Cells were assessed as a percentage of DMSO only treated control cells. Curves were plotted and IC50 values were calculated using the GraphPad Prism 8 program based on a sigmoidal dose-response equation (4 parameter).
(In general: ATP-based viability assays read luminescence as a measure of living cells.)

Assay [7] deals with KG-1 cells (FGFR1-fusion). Briefly: KG-1 cancer cell line cell viability assay (CellTiter-Glo 2.0). The class given is cell-based. To be noted: Homo sapiens, 72 hours, Cell Titer Glo 2.0.
Text: as §2, §3, §4

Assay [8] concerns the target FGFR1-BCR Ba/F3 cells (Homo sapiens, UniProt P11362). Kind of assay: Ba/F3 cell viability assay (CellTiter-Glo 2.0), FGFR1-BCR Ba/F3. It counts as cell-based. To be noted: read-out: Ba/F3 Cells FGFR1 (IC50 nM), 48 hours, Cell Titer Glo 2.0. In short, it runs like this: (§5)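 IL3-independent Ba/F3 lines driven by FGFR1-BCR or FGFR3-BAIAP2L1 fusions, in RPMI1640/10% FBS. 9-dose 10-fold series from 30 μM, triplicate, 48 h at 37 °C; viability by CellTiter-Glo 2.0 ATP luminescence relative to DMSO control, IC50 from 4-parameter sigmoidal fit.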

In assay [9] the target is FGFR3-BAIAP2L1 Ba/F3 cells (Homo sapiens, UniProt P22607). Briefly: Ba/F3 cell viability assay (CellTiter-Glo 2.0), FGFR3-BAIAP2L1 Ba/F3. It counts as cell-based. To be noted: for Ba/F3 FGFR1/FGFR3 Selectivity: FGFR3 > FGFR1 selectivity ratio in Ba/F3 FGFR fusion cell based assays; for IC50: read-out: Ba/F3 Cells FGFR3 (IC50 nM), FGFR3-BAIAP2L1 Ba/F3 cells, 48 hours, Cell Titer Glo 2.0. In short, it runs like this: as §5

Molecules are shown by their SMILES. Some results are limits rather than exact numbers.

FGFR3, sequence (P22607 23-806): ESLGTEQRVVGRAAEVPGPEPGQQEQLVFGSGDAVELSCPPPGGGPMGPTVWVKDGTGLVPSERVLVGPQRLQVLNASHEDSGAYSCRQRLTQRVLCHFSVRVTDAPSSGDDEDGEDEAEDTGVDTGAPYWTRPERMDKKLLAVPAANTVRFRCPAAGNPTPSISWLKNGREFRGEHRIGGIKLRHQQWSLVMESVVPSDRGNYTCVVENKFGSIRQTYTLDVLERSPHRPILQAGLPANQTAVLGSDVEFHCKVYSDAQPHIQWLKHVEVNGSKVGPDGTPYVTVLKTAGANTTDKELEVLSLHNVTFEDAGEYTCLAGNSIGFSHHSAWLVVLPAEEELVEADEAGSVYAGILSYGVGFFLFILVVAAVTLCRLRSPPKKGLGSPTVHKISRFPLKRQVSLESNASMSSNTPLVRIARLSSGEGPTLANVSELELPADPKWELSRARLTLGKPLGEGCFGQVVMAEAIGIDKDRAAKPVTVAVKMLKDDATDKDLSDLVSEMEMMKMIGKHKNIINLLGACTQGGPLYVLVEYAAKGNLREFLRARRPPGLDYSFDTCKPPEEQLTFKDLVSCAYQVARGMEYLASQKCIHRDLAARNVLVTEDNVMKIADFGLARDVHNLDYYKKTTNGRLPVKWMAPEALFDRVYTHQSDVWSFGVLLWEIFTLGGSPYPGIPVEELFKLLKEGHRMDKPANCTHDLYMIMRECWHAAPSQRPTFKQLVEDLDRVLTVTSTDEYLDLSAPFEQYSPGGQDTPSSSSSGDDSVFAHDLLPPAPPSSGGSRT
FGFR3-BAIAP2L1 Ba/F3 cells, sequence (P22607 23-806 limits assumed, change not shown): as the sequence (P22607 23-806) above
FGFR3 (V555M), sequence (P22607 23-806 V555M): as the sequence (P22607 23-806) above, with V533M counted along it
FGFR1-BCR Ba/F3 cells, sequence (P11362 22-822 limits assumed, change not shown): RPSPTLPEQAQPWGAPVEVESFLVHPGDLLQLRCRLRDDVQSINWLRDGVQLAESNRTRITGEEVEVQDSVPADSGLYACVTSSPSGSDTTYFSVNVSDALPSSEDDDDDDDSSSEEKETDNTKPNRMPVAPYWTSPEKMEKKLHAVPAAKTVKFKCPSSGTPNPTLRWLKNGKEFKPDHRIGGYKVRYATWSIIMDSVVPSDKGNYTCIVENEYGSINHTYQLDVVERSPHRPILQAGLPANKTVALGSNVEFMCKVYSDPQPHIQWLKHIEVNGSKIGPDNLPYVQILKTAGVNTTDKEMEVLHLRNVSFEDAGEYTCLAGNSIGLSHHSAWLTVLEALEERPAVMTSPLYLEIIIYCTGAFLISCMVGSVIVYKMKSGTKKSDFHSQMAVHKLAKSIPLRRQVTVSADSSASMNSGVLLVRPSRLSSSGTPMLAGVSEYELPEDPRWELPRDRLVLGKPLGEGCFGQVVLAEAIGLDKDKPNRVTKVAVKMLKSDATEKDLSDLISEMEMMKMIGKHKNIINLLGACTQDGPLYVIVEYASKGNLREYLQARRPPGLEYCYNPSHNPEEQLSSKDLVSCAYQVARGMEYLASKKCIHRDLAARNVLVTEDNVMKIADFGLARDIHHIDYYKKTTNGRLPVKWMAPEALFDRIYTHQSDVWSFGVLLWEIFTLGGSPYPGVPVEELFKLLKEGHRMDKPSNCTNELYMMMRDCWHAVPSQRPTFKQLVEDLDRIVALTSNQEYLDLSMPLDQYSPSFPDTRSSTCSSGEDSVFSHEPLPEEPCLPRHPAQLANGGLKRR
FGFR1, sequence (P11362 22-822): as the sequence (P11362 22-822 limits assumed, change not shown) above
FGFR4, sequence (P22455 22-802): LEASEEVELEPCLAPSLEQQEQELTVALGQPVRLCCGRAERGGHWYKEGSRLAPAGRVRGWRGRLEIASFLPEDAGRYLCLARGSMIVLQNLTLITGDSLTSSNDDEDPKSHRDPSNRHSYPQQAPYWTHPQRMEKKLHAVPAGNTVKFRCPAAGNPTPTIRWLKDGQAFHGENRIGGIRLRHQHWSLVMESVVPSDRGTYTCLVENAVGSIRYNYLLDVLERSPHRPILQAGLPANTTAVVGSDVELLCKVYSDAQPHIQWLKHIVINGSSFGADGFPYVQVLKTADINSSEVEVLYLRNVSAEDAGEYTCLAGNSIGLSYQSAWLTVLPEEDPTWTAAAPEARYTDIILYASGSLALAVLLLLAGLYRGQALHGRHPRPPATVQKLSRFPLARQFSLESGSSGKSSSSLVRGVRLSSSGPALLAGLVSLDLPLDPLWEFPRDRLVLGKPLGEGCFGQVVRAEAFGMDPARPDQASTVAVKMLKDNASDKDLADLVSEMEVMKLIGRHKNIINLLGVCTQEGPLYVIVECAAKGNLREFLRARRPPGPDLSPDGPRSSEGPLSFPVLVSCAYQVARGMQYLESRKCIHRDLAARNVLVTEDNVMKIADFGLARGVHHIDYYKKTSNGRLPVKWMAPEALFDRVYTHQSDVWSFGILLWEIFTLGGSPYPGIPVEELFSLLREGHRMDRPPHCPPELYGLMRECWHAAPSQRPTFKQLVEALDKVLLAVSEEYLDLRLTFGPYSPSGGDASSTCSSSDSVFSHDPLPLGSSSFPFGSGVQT
FGFR2, sequence (P21802 22-821): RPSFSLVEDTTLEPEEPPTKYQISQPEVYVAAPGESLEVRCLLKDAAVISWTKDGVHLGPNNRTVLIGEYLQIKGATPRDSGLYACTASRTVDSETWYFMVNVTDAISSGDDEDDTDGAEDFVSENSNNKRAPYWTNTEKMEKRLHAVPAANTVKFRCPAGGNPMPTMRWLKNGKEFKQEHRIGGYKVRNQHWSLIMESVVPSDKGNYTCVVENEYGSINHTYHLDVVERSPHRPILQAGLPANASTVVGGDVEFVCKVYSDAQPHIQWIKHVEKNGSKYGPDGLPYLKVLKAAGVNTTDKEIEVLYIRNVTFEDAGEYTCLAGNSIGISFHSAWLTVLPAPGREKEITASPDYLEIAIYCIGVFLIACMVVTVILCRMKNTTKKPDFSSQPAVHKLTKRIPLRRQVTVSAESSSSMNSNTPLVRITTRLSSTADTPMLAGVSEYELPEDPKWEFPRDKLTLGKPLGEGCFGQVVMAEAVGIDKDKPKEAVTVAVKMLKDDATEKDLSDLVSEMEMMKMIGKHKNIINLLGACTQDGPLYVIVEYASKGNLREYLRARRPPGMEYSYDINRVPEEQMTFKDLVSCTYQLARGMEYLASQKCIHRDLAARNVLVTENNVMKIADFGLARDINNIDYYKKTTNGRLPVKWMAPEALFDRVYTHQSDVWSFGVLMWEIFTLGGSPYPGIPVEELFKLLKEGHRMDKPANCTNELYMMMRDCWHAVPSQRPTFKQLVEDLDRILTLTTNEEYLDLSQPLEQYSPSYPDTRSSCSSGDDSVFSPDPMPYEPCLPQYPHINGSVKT

One may read the Kd as the equilibrium constant for the complex coming apart. For `CC(Oc1ccc2[nH]nc(-c3ccc(N4CC5(C4)CN(S(C)(=O)=O)C5)nc3)c2c1)c1c(Cl)ccnc1Cl` (stereo not shown) [Example 109, 5-[1-(2,4-dichloro-3-pyridyl)ethoxy]-3-[6-(2-methylsulfonyl-2,6-diazaspiro[3.3]heptan-6-yl)-3-pyridyl]-1H-indazole], the Kd in assay [1] was 1 to 20 nM; in assay [2] it was 20 to 100 nM; in assay [3], 1 to 20 nM; in assay [4], 1 to 20 nM; in [5], 1 to 20 nM. Further, the IC50 in [6] fell in the range of 20 to 100 nM; in [7], 100 to 300 nM; in [8], 100 to 300 nM; in assay [9] it was 1 to 20 nM. Also, the “Ba/F3 FGFR1/FGFR3 Selectivity” value in [9] was 12.

On to `C[C@@H](Oc1ccc2[nH]nc(-c3ccc(N4CC5(CCN(S(C)(=O)=O)C5)C4)nc3)c2c1)c1c(Cl)cncc1Cl` [Example 115, 5-[(1R)-1-(3,5-dichloro-4-pyridyl)ethoxy]-3-[6-(7-methylsulfonyl-2,7-diazaspiro[3.4]octan-2-yl)-3-pyridyl]-1H-indazole], for which the Kd in assay [1], in [2], in assay [3], in assay [4] and in assay [5] was 1 to 20 nM each time. The IC50 was in the range of 1 to 20 nM in assay [6], 100 to 300 nM in assay [7], 20 to 100 nM in assay [8] and 1 to 20 nM in assay [9]. Further, the “Ba/F3 FGFR1/FGFR3 Selectivity” value in assay [9] stood at 14.

Regarding `C[C@@H](Oc1ccc2[nH]nc(-c3ccc(N4CC5(CCS(=O)(=O)C5)C4)nc3)c2c1)c1c(Cl)cncc1Cl` [Example 117, 2-[5-[5-[(1R)-1-(3,5-dichloro-4-pyridyl)ethoxy]-1H-indazol-3-yl]-2-pyridyl]-6λ^6-thia-2-azaspiro[3.4]octane 6,6-dioxide], the Kd in assay [1], in assay [2], in assay [3], in assay [4] and in assay [5] was 1 to 20 nM throughout. In addition, the IC50 in assay [6] lay within 1 to 20 nM; in assay [7] it was 20 to 100 nM; in assay [8], 20 to 100 nM; in assay [9], 1 to 20 nM. For the same compound, the “Ba/F3 FGFR1/FGFR3 Selectivity” value in assay [9] is on record as 15.

Take `C[C@@H](Oc1ccc2[nH]nc(-c3cnc(N4CC5(C4)CN(S(C)(=O)=O)C5)nc3)c2c1)c1c(Cl)cncc1Cl` [Example 119, 5-[(1R)-1-(3,5-dichloro-4-pyridyl)ethoxy]-3-[2-(2-methylsulfonyl-2,6-diazaspiro[3.3]heptan-6-yl)pyrimidin-5-yl]-1H-indazole]: the dissociation constant Kd was 1 to 20 nM in assay [1]; 20 to 100 nM in assay [2]; 20 to 100 nM in assay [3]; 1 to 20 nM in assay [4]; 1 to 20 nM in assay [5]. Besides, the IC50 lay within 20 to 100 nM in assay [6], 100 to 300 nM in [7], 20 to 100 nM in assay [8] and 1 to 20 nM in assay [9]. The “Ba/F3 FGFR1/FGFR3 Selectivity” value in assay [9] is 9.

On to `CC(C)S(=O)(=O)N1CC2(CN(c3ncc(-c4n[nH]c5ccc(O[C@H](C)c6c(Cl)cncc6Cl)cc45)cn3)C2)C1` [Example 120, 5-[(1R)-1-(3,5-dichloro-4-pyridyl)ethoxy]-3-[2-(2-isopropylsulfonyl-2,6-diazaspiro[3.3]heptan-6-yl)pyrimidin-5-yl]-1H-indazole], for which the Kd lay in the range of 1 to 20 nM in assay [1]; 20 to 100 nM in [2]; 20 to 100 nM in [3]; 1 to 20 nM in assay [4]; 1 to 20 nM in assay [5]. Moreover, the IC50 in assay [6] is 20 to 100 nM; in assay [7], greater than 300 nM; in assay [8], 100 to 300 nM; in [9], 20 to 100 nM. Moreover, the “Ba/F3 FGFR1/FGFR3 Selectivity” value in assay [9] came out at 7.

`CCOC(=O)N1CC2(C1)CN(c1ccc(-c3n[nH]c4ccc(O[C@H](C)c5c(Cl)cncc5Cl)cc34)cn1)C2` [Example 121, ethyl 6-[5-[5-[(1R)-1-(3,5-dichloro-4-pyridyl)ethoxy]-1H-indazol-3-yl]-2-pyridyl]-2,6-diazaspiro[3.3]heptane-2-carboxylate]: the Kd lay in the range of 1 to 20 nM in [1]; 20 to 100 nM in assay [2]; 20 to 100 nM in assay [3]; 1 to 20 nM in [4]; 1 to 20 nM in assay [5]. For the same compound, the IC50 is 1 to 20 nM in [6], 100 to 300 nM in [7], 100 to 300 nM in assay [8] and 1 to 20 nM in assay [9]. Besides, the “Ba/F3 FGFR1/FGFR3 Selectivity” value in [9] amounted to 14.

Take `C[C@@H](Oc1ccc2[nH]nc(-c3cnc(N4CC5(CCS(=O)(=O)C5)C4)nc3)c2c1)c1c(Cl)cncc1Cl` [Example 122, 2-[5-[5-[(1R)-1-(3,5-dichloro-4-pyridyl)ethoxy]-1H-indazol-3-yl]pyrimidin-2-yl]-6λ^6-thia-2-azaspiro[3.4]octane 6,6-dioxide]: the Kd in assay [1] is 1 to 20 nM; in [2] it was 1 to 20 nM; in assay [3], 20 to 100 nM; in [4], 1 to 20 nM; in assay [5], 1 to 20 nM. Besides, the IC50 was 1 to 20 nM in assay [6], 100 to 300 nM in assay [7], 20 to 100 nM in assay [8] and 1 to 20 nM in assay [9]. In addition, in assay [9], the “Ba/F3 FGFR1/FGFR3 Selectivity” value is reported as 7.

In the case of `COC(=O)N1CC2(C1)CN(c1ccc(-c3n[nH]c4ccc(O[C@H](C)c5c(Cl)cncc5Cl)cc34)cn1)C2` [Example 123, methyl 6-[5-[5-[(1R)-1-(3,5-dichloro-4-pyridyl)ethoxy]-1H-indazol-3-yl]-2-pyridyl]-2,6-diazaspiro[3.3]heptane-2-carboxylate], the Kd in assay [1], in assay [2], in [3], in assay [4] and in assay [5] was 1 to 20 nM throughout. In addition, the IC50 in [6] lay in the range of 1 to 20 nM; in assay [7] it was 100 to 300 nM; in [8], 20 to 100 nM; in assay [9], 1 to 20 nM. Besides, the “Ba/F3 FGFR1/FGFR3 Selectivity” value in assay [9] worked out at 15.

Turning to `CCS(=O)(=O)N1CC2(CN(c3ccc(-c4n[nH]c5ccc(O[C@H](C)c6c(Cl)cncc6Cl)cc45)cn3)C2)C1` [Example 124, 5-[(1R)-1-(3,5-dichloro-4-pyridyl)ethoxy]-3-[6-(2-ethylsulfonyl-2,6-diazaspiro[3.3]heptan-6-yl)-3-pyridyl]-1H-indazole], the Kd in assay [1] lay in the range of 1 to 20 nM; in assay [2], 20 to 100 nM; in [3], 20 to 100 nM; in assay [4], 1 to 20 nM; in [5], 1 to 20 nM. Besides, the IC50 in assay [6] was in the range of 1 to 20 nM; in [7], 100 to 300 nM; in assay [8], 100 to 300 nM; in assay [9] it was 1 to 20 nM. Further, the “Ba/F3 FGFR1/FGFR3 Selectivity” value in assay [9] is given as 17.

With `COC(=O)N1CCC2(CC1)CN(c1ccc(-c3n[nH]c4ccc(O[C@H](C)c5c(Cl)cncc5Cl)cc34)cn1)C2` [Example 125, methyl 2-[5-[5-[(1R)-1-(3,5-dichloro-4-pyridyl)ethoxy]-1H-indazol-3-yl]-2-pyridyl]-2,7-diazaspiro[3.5]nonane-7-carboxylate], the Kd in assay [1] is 1 to 20 nM; in assay [2] it was 20 to 100 nM; in assay [3], 20 to 100 nM; in [4] it was 1 to 20 nM; in [5], 1 to 20 nM. Also, the IC50 was 1 to 20 nM in [6], 100 to 300 nM in assay [7], 100 to 300 nM in [8] and 1 to 20 nM in [9]. Further, in assay [9], the “Ba/F3 FGFR1/FGFR3 Selectivity” value is 16.
